Test results reported in patent US12715894B2, “Triptolide conjugates and uses thereof” (priority 2020, dated 2026).

Key:
huh-7 cells = experiment: Huh-7 HCC animal model, antitumor efficacy against solid tumors; format: in vivo, male nude mice; conditions: Huh-7 xenograft; for Tumor volume (V) 4 days after treatment: Compound 1 and 2 at 2.0 mg/kg i.p. once daily, Lenvatinib 5.0 mg/kg oral once daily, control V=598 mm^3; for Tumor inhibition rate based on the average tumor weights: after 21 days treatment, Compound 1 and 2 at 2.0 mg/kg i.p. daily, Lenvatinib 5.0 mg/kg oral daily; for Increase of average tumor volume by the end of the treatment compared to before the treatment: end of 3 weeks daily treatment, given as 'increased up to', control up to 15 times
Protocol: To evaluate the antitumor efficacy of the triptolide conjugates disclosed herein against solid tumors, huh-7 cells (~10×10^6 cells) were injected into the right flank of male nude mice. When the tumors reached a volume of ~150 mm^3, the mice were randomly divided into 4 groups with 7 or 8 mice per group and were treated as below indicated. Tumor volumes were measured twice per week and estimated by using the formula: Tumor volume (V)=(L×W×W)÷2, W is tumor width, L is tumor length. • 1. Group 1 was the control group in which the mice were administered daily the vehicle (0.5% CMC-Na/carboxymethylcellulose sodium, i.p.) for 3 weeks; • 2. Group 2 was the test group in which the mice were administered daily Compound 1 (2.0 mg/kg, i.p.) for 3 weeks; • 3. Group 3 was the test group in which the mice were administered daily Compound 2 (2.0 mg/kg, i.p.) for 3 weeks; and • 4. Group 4 was the positive control group in which the mice where administered daily Lenvatinib (5.0 mg/kg, oral) for 3 weeks.

HepG-2 cells = experiment: HepG-2 HCC animal model, antitumor efficacy against solid tumors; format: in vivo, male nude mice; conditions: HepG-2 xenograft; Conjugate 4 at 2.0 mg/kg, Conjugates 8, 9, 10 at 6.0 mg/kg, i.p. daily for 4 weeks; vehicle group increased to 17.72 times
Protocol: To evaluate the antitumor efficacy of the novel triptolide-conjugate against solid tumors, HepG-2 cells (~10×10^6 cells) were injected into the right flank of male nude mice. when the tumors were reached a volume of ~150 mm^3, mice were randomly divided into 5 groups with 8 mice per group and treated as below indicated. Tumor volumes were measured twice per week and estimated by using the formula: Tumor volume (V)=(L×W×W) 2, W is tumor width, L is tumor length. • 1. Group 1 is the control in which the mice were daily administered vehicle (i.p. brine) for 4 weeks; • 2. in Group 2, mice were daily administered Conjugate 4 (2.0 mg/kg, i.p.) for 4 weeks; • 3. in Group 3, mice were daily administered Conjugate 8 (6.0 mg/kg, i.p.) for 4 weeks; • 4. in Group 4, mice were daily administered Conjugate 9 (6.0 mg/kg i.p.) for 4 weeks; • 5. in Group 5, mice were daily administered Conjugate 10 (6.0 mg/kg, i.p.) for 4 weeks;

SMILES	Tumor volume (V) 4 days after treatment (huh-7 cells)	Tumor inhibition rate based on the average tumor weights (huh-7 cells)	Increase of average tumor volume by the end of the treatment compared to before the treatment (huh-7 cells)	Tumor size after 28 days treatment (HepG-2 cells)
CC(C)[C@]12O[C@H]1[C@@H]1O[C@]13[C@]1(O[C@H]1C[C@H]1C4=C(CC[C@@]13C)C(=O)OC4)[C@@H]2OC(=O)CCC(=O)OC[C@H]1OC(O)[C@H](F)[C@@H](O)[C@@H]1O (stereo partly drawn) [Compound 1, ((2R,3S,4S,5R)-5-fluoro-3,4,6-trihydroxytetrahydro-2H-pyran-2-yl)methyl ((5bS,6aS,7aR,8R,8aS,9aS,9bS,10aS,10bS)-8a-isopropyl-10b-methyl-3-oxo-1,2,3,5,5b,6,6a,8,8a,9a,9b,10b-dodecahydrotris(oxireno)[2′,3′:4b,5;2″,3″:6,7;2′″,3′″:8a,9]phenanthro[1,2-c]furan-8-yl) succinate]	245 mm^3	88.3%	up to 2.0 times	–
CC(C)[C@]12O[C@H]1[C@@H]1O[C@]13[C@]1(O[C@H]1C[C@H]1C4=C(CC[C@@]13C)C(=O)OC4)[C@@H]2OC(=O)CCC(=O)N1CCN(C(=O)CCC(=O)N[C@@H]2C(O)O[C@@H](CO)[C@H](O)[C@H]2O)CC1 (stereo partly drawn) [Compound 2, (5bS,6aS,7aR,8R,8aS,9aS,9bS,10aS,10bS)-8a-isopropyl-10b-methyl-3-oxo-1,2,3,5,5b,6,6a,8,8a,9a,9b,10b-dodecahydrotris(oxireno)[2′,3′:4b,5;2″,3″:6,7;2′″,3′″:8a,9]phenanthro[1,2-c]furan-8-yl 4-oxo-4-(4-(4-oxo-4-(((3S,4S,5R,6S)-2,4,5-trihydroxy-6-(hydroxymethyl)tetrahydro-2H-pyran-3-yl)amino)butanoyl)piperazin-1-yl)butanoate]	315 mm^3	84.4%	≤ 2.7 times	–
CC(C)[C@]12O[C@H]1[C@@H]1O[C@]13[C@]1(O[C@H]1C[C@H]1C4=C(CC[C@@]13C)C(=O)OC4)[C@@H]2OC(=O)CNC(=O)CNC(=O)COC[C@H]1OC(O)[C@H](O)[C@@H](O)[C@@H]1O (stereo partly shown) [Compound 4]	–	–	–	gradually shrinked to disappear
CC(C)[C@]12O[C@H]1[C@@H]1O[C@]13[C@]1(O[C@H]1CC1C4=C(CC[C@@]13C)C(=O)OC4)[C@@H]2OC(=O)CCC(=O)NC(COCCC(=O)NCCCNC(=O)CCCC(=O)N[C@H]1C(O)O[C@H](CO)[C@@H](O)[C@@H]1O)(COCCC(=O)NCCCNC(=O)CCCC(=O)N[C@H]1C(O)O[C@H](CO)[C@@H](O)[C@@H]1O)COCCC(=O)NCCCNC(=O)CCCC(=O)N[C@H]1C(O)O[C@H](CO)[C@@H](O)[C@@H]1O (stereo partly shown) [Compound 8]	–	–	–	gradually shrinked to disappear
CC(C)[C@]12O[C@H]1[C@@H]1O[C@]13[C@]1(O[C@H]1CC1C4=C(CC[C@@]13C)C(=O)OC4)[C@@H]2OC(=O)CCC(=O)NC(COCCC(=O)NCCCNC(=O)CCCCO[C@@H]1O[C@H](CO)[C@@H](O)[C@H](O)[C@H]1O)(COCCC(=O)NCCCNC(=O)CCCCO[C@@H]1O[C@H](CO)[C@@H](O)[C@H](O)[C@H]1O)COCCC(=O)NCCCNC(=O)CCCCO[C@@H]1O[C@H](CO)[C@@H](O)[C@H](O)[C@H]1O (stereo partly shown) [Compound 9]	–	–	–	gradually shrinked to disappear
CC(=O)N[C@H]1[C@H](OCCCCC(=O)NCCCNC(=O)CCOCC(COCCC(=O)NCCCNC(=O)CCCCO[C@@H]2O[C@H](CO)[C@H](O)[C@H](O)[C@H]2NC(C)=O)(COCCC(=O)NCCCNC(=O)CCCCO[C@@H]2O[C@H](CO)[C@H](O)[C@H](O)[C@H]2NC(C)=O)NC(=O)CCC(=O)O[C@@H]2[C@@]3(C(C)C)O[C@H]3[C@@H]3O[C@]34[C@]23O[C@H]3CC2C3=C(CC[C@@]24C)C(=O)OC3)O[C@H](CO)[C@H](O)[C@@H]1O (stereo partly shown) [Compound 10]	–	–	–	gradually shrinked to disappear
COc1cc2nccc(Oc3ccc(NC(=O)NC4CC4)c(Cl)c3)c2cc1C(N)=O [Lenvatinib, reference compound]	381 mm^3	42.3%	≤ 9 times	–
